Data taken from patent US8778951B2, “Heteroaryl compounds and their uses” (Novartis AG, priority 2009, dated 2014).

Each compound was assayed against Cdk9/cyclinT1 (Homo sapiens (Human), UniProt P50750) (assay: Cdk9/CyclinT1 IMAP Protocol (fluorescence polarization kinase assay)). Settings: Table 2; generated using one of the two Cdk9/cyclinT1 assays (IMAP or Alpha Screen), not specified which; unit inferred.
Type: biochemical
Summary of the method: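 Reaction used 4 nM Cdk9/cyclinT1, 100 nM 5TAMRA-cdk7tide peptide and 6 uM ATP in 100 mM Tris pH 7.2 with MgCl2, 0.01% Tween-20, 1 mM DTT and 2.5% DMSO, running 4.5 h. Phosphopeptide was captured by IMAP binding reagent for >1 h, then read by fluorescence polarization (ex 531/em 595 nm).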

Cdk9/cyclinT1, sequence (P50750 whole entry): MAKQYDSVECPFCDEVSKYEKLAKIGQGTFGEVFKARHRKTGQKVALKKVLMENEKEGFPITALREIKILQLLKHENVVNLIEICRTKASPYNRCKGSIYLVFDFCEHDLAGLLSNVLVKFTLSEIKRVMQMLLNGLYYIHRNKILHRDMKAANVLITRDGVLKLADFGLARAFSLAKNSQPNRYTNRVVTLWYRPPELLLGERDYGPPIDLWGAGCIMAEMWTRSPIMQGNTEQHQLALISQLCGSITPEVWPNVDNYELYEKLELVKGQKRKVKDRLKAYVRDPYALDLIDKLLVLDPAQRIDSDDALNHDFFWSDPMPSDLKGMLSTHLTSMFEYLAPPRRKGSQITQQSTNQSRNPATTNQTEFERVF
Cdk9/cyclinT1, sequence (O60563 whole entry partner): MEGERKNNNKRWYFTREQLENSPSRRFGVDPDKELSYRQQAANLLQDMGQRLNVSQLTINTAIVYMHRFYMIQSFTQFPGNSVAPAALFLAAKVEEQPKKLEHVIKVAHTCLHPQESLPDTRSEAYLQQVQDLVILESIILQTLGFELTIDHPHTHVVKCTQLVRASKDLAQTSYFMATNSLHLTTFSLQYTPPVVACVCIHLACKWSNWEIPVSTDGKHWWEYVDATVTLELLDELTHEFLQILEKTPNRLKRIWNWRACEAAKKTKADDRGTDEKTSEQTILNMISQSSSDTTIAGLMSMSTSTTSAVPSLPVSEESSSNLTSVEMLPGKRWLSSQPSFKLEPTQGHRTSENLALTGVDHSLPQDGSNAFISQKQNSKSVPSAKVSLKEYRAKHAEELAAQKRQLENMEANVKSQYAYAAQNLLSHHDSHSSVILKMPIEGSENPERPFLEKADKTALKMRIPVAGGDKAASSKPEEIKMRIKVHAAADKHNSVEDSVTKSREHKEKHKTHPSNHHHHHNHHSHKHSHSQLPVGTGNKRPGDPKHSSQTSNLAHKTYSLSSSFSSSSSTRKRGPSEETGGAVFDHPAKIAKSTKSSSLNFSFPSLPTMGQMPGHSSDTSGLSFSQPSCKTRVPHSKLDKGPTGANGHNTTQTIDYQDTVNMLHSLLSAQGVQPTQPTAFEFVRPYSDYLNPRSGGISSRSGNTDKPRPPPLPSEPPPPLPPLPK

| Compound | IC50 [µM] |
| --- | --- |
| (S)-3-(trans-4-(3,5′-dichloro-6-((tetrahydro-2H-pyran-4-yl)methyl)amino-2,4′-bipyridin-2′-yl-amino)cyclohexylamino)-1,1,1-trifluoropropan-2-ol [Compound 289] | 0.004 |
| 3,5′-dichloro-N6-((tetrahydro-2H-pyran-4-yl)methyl)-N2′-(trans-4-(((R)-tetrahydrofuran-2-yl)methyl)aminocyclohexyl)-2,4′-bipyridine-2′,6-diamine [Compound 268] | 0.00814 |
| OCCNc1cc(-c2cccc(NCc3cccc(F)c3)n2)c(Cl)cn1 [Compound 160] | 0.019 |
| Clc1cnc(NC[C@H]2CCCN2)cc1-c1cccc(NCC2CCOCC2)n1 [Compound 303] | 1.3 |
| Fc1cc(F)cc(CNc2cccc(-c3cc(N[C@H]4CCCNC4)ncc3Cl)n2)c1 [Compound 98] | 0.416 |
| N[C@H]1CC[C@H](Nc2cc(-c3nc(NCC4CCOCC4)cnc3C(F)(F)F)c(Cl)cn2)CC1 [Compound 255, trans-N1-(5-chloro-4-(6-((tetrahydro-2H-pyran-4-yl)methyl)amino-3-(trifluoromethyl)pyrazin-2-yl)pyridin-2-yl)cyclohexane-1,4-diamine] | 0.0423 |
| CN(C)C(=O)[C@H]1CC[C@@H](Nc2cc(-c3cccc(NCc4cccc(F)c4)n3)c(Cl)cn2)C1 [Compound 205, (1S,3R)-3-(5′-chloro-6-(3-fluorobenzylamino)-2,4′-bipyridin-2′-yl-amino)-N,N-dimethylcyclopentanecarboxamide] | 0.0175 |
| Fc1cccc(CNc2cccc(-c3cc(NC4CCNCC4)ncc3Cl)n2)c1 [Compound 5, 5′-chloro-N6-(3-fluorobenzyl)-N2′-(piperidin-4-yl)-2,4′-bipyridine-2′,6-diamine] | 0.0397 |
| CC(=O)NC[C@H]1CC[C@H](Nc2cc(-c3cncc(NCC4CCOCC4)n3)c(Cl)cn2)CC1 [Compound 247] | 0.0202 |
| Fc1cccc(CNc2cccc(-c3cc(NCCc4cccnc4)ncc3Cl)n2)c1 [Compound 175] | 0.024 |
| O[C@H]1CC[C@H](Nc2cc(-c3cccc(NCc4cccnc4)n3)c(Cl)cn2)CC1 [Compound 120] | 0.0456 |
| CS(=O)(=O)N[C@H]1CC[C@H](Nc2cc(-c3cncc(NCC4CCOCC4)n3)c(Cl)cn2)CC1 [Compound 245] | 0.0534 |
| Fc1cccc(CNc2cncc(-c3ccnc(N[C@H]4CC[C@H](NCc5ccccc5)CC4)c3)n2)c1 [Compound 10, trans-N1-benzyl-N4-(4-(6-(3-fluorobenzylamino)pyrazin-2-yl)pyridin-2-yl)cyclohexane-1,4-diamine] | 0.0186 |
| COCCN(C)[C@H]1CC[C@H](Nc2cc(-c3cccc(NCC4CCOCC4)n3)c(Cl)cn2)CC1 [Compound 279] | 0.0131 |
| O[C@H]1CC[C@H](Nc2cc(-c3cccc(NCC4CCCCC4)n3)c(Cl)cn2)CC1 [Compound 132] | 0.0144 |
| CNc1cc(-c2cccc(NCc3cccc(F)c3)n2)c(Cl)cn1 [Compound 178, 5′-chloro-N6-(3-fluorobenzyl)-N2′-methyl-2,4′-bipyridine-2′,6-diamine] | 0.103 |

| Compound | IC50 [µM] |
| --- | --- |
| CCOC(=O)c1coc(N[C@H]2CC[C@H](Nc3cc(-c4cccc(NCc5cccc(F)c5)n4)c(Cl)cn3)CC2)n1 [Compound 155, Ethyl 2-(trans-4-(5′-chloro-6-(3-fluorobenzylamino)-2,4′-bipyridin-2′-yl-amino)cyclohexylamino)oxazole-4-carboxylate] | 0.023 |
| NCCNc1cccc(-c2cc(N[C@H]3CC[C@H](O)CC3)ncc2Cl)n1 [Compound 117] | 0.124 |
| CN(Cc1ccccc1)c1cccc(-c2cc(N[C@H]3CC[C@H](N)CC3)ncc2Cl)n1 [Compound 76] | 0.0111 |
| N[C@H]1CC[C@H](Nc2cc(-c3cccc(NCC4CCCCC4)n3)ccn2)CC1 [Compound 2, N2′-(trans-4-aminocyclohexyl)-N6-(cyclohexylmethyl)-2,4′-bipyridine-2′,6-diamine] | 0.0256 |
| Fc1cc(F)cc(CNc2cccc(-c3cc(NC4CCNCC4)ncc3Cl)n2)c1 [Compound 71] | 0.0274 |
| Cc1ncc(-c2cc(N[C@H]3CC[C@H](N)CC3)ncc2Cl)nc1NCC1CCOCC1 [Compound 231, trans-N1-(5-chloro-4-(5-methyl-6-((tetrahydro-2H-pyran-4-yl)methyl)aminopyrazin-2-yl)pyridin-2-yl)cyclohexane-1,4-diamine] | 0.0149 |
| Clc1cnc(N[C@H]2CCCNC2)cc1-c1cccc(NCC2CCCCC2)n1 [Compound 95] | 1.95 |
| Nc1cc(-c2cccc(NCc3cccc(F)c3)n2)c(Cl)cn1 [Compound 179] | 0.544 |
| Fc1cccc(CNc2cccc(-c3cc(NCC4CCOCC4)ncc3Cl)n2)c1 [Compound 143] | 0.0227 |
| OC[C@H]1CC[C@H](Nc2cc(-c3cncc(NCC4CCOCC4)n3)c(Cl)cn2)CC1 [Compound 242] | 0.0154 |
| CN1CCC[C@H]1C(=O)N1CCC(Nc2cc(-c3cccc(NCc4cccc(F)c4)n3)c(Cl)cn2)CC1 [Compound 86] | 0.0815 |
| COc1cnc(N[C@H]2CC[C@H](N)CC2)cc1-c1cccc(NCc2cccc(F)c2)n1 [Compound 180, N2′-(trans-4-aminocyclohexyl)-N6-(3-fluorobenzyl)-5′-methoxy-2,4′-bipyridine-2′,6-diamine] | 0.0121 |
| CN1CCN(C[C@H]2CC[C@H](Nc3cc(-c4cccc(NCc5cccc(F)c5)n4)c(Cl)cn3)CC2)CC1 [Compound 111] | 0.0308 |
| Fc1cc(F)cc(CNc2cccc(-c3cc(N[C@@H]4CCCNC4)ncc3Cl)n2)c1 [Compound 92] | 0.296 |
| O[C@H]1CC[C@@H](Nc2cc(-c3cccc(NCC4CCOCC4)n3)c(Cl)cn2)CC1 [Compound 275] | 0.146 |

The remaining lines, values ahead:

| IC50 [µM] | Compound |
| --- | --- |
| 0.00794 | N[C@H]1CC[C@H](Nc2cc(-c3cncc(NC[C@H]4CCCOC4)n3)c(Cl)cn2)CC1 [Compound 261] |
| 0.00795 | N[C@H]1CC[C@H](Nc2cc(-c3cncc(NCc4cccc(F)c4)n3)c(Cl)cn2)CC1 [Compound 101] |
| 0.00794 | CC1(C)C[C@@H](CNc2cccc(-c3cc(N[C@H]4CC[C@H](N)CC4)ncc3Cl)n2)CCO1 (single isomer, unassigned) [Compound 257] |
| 0.0007 | COC[C@@H](C)N[C@H]1CC[C@H](Nc2cc(-c3cccc(NCC4(C)CCS(=O)(=O)CC4)n3)c(Cl)cn2)CC1 [Compound 365] |
| 0.00795 | N[C@H]1CC[C@H](Nc2cc(-c3nc(NCC4CCOCC4)cnc3Cl)ccn2)CC1 [Compound 232] |
| 0.00794 | Clc1cnc(N[C@H]2CC[C@H](NCC3COCCO3)CC2)cc1-c1nc(NCC2CCOCC2)ccc1Cl (some centres unmarked) [Compound 271] |
| 0.001 | COCCN[C@H]1CC[C@H](Nc2cc(-c3ccc(F)c(NCC4CCOCC4)n3)c(Cl)cn2)CC1 [Compound 314] |
| 0.00794 | N[C@H]1CC[C@H](Nc2cc(-c3nc(NCC4CCOCC4)c(Cl)cc3Cl)c(Cl)cn2)CC1 [Compound 266, N2′-(trans-4-aminocyclohexyl)-3,5,5′-trichloro-N6-((tetrahydro-2H-pyran-4-yl)methyl)-2,4′-bipyridine-2′,6-diamine] |
| 0.001 | CC1(CNc2cccc(-c3cc(N[C@H]4CC[C@H](N)CC4)ncc3Cl)n2)CCOCC1 [Compound 311, N2′-(trans-4-aminocyclohexyl)-5′-chloro-N6-((4-methyltetrahydro-2H-pyran-4-yl)methyl)-2,4′-bipyridine-2′,6-diamine] |
| 0.00808 | N[C@H]1CC[C@H](Nc2cc(-c3cccc(NCc4ccccc4)n3)c(Cl)cn2)CC1 [Compound 25] |
| 0.00795 | O[C@H]1CC[C@H](Nc2cc(-c3cncc(NCC4CCCOC4)n3)c(Cl)cn2)CC1 (some centres unmarked) [Compound 229] |
| 0.009 | N[C@H]1CC[C@H](CNc2cc(-c3cccc(NCc4cccc(F)c4)n3)c(Cl)cn2)CC1 [Compound 169] |
| 0.001 | O=S1(=O)CCC(CN[C@H]2CC[C@H](Nc3cc(-c4ccc(F)c(NCC5CCOCC5)n4)c(Cl)cn3)CC2)CC1 [Compound 331] |
| 0.00794 | N[C@H]1CC[C@H](Nc2cc(-c3cccc(NCc4cccc(F)c4)n3)c(Cl)cn2)C1 [Compound 192] |
| 0.00795 | O[C@H]1CC[C@H](Nc2cc(-c3cccc(NCc4cccc(F)c4)n3)c(Cl)cn2)CC1 [Compound 114] |
| 0.00795 | Nc1ncc(-c2cc(N[C@H]3CC[C@H](N)CC3)ncc2Cl)nc1NCC1CCOCC1 [Compound 226, 6-(2-(trans-4-aminocyclohexylamino)-5-chloropyridin-4-yl)-N2-((tetrahydro-2H-pyran-4-yl)methyl)pyrazine-2,3-diamine] |
| 0.00794 | N[C@H]1CC[C@H](Nc2cc(-c3cccc(NCc4cccc(Br)c4)n3)c(Cl)cn2)CC1 [Compound 48] |
| 0.001 | CC1(C)CC(CNc2ccc(Cl)c(-c3cc(N[C@H]4CC[C@H](NC[C@@H](O)C(F)(F)F)CC4)ncc3Cl)n2)CCO1 (some centres unmarked) [Compound 299] |
| 0.011 | COC[C@@H](C)N[C@H]1CC[C@H](Nc2cc(-c3nc(NCC4CCCCO4)ccc3Cl)c(Cl)cn2)CC1 (stereo in doubt) [Compound 321, 3,5′-dichloro-N2′-(trans-4-((R)-1-methoxypropan-2-yl-amino)cyclohexyl)-N6-(((S)-tetrahydro-2H-pyran-2-yl)methyl)-2,4′-bipyridine-2′,6-diamine] |
| 0.00795 | Fc1cccc(CNc2cccc(-c3cc(N[C@H]4CC[C@H](N5CCOCC5)CC4)ncc3Cl)n2)c1 [Compound 116] |
| 0.001 | C[C@@H]1CC(CNc2cccc(-c3cc(N[C@H]4CC[C@H](N)CC4)ncc3Cl)n2)C[C@H](C)O1 (stereo partly drawn) [Compound 284, N2′-(trans-4-aminocyclohexyl)-5′-chloro-N6-(((2R,6S)-2,6-dimethyltetrahydro-2H-pyran-4-yl)methyl)-2,4′-bipyridine-2′,6-diamine] |
| 0.00794 | COCCN(C)[C@H]1CC[C@H](Nc2cc(-c3nc(NCC4CCOCC4)ccc3Cl)c(Cl)cn2)CC1 [Compound 272, 3,5′-dichloro-N2′-(trans-4-((2-methoxyethyl)(methyl)amino)cyclohexyl)-N6-((tetrahydro-2H-pyran-4-yl)methyl)-2,4′-bipyridine-2′,6-diamine] |
